This note sets out measurements from patent US20150038527A1, “FUROPYRIDINE DERIVATIVES” (Merck Patent GmbH, priority 2012, published 2015).

SMILES strings stand for the structures. A value given as a limit tells only on which side of the number the result lay.

This experiment deals with T1, SYK (Homo sapiens, UniProt P43405).
T1 construct: 2.5 nM SYK, 400 nM Biotin-Aha-Aha-KEDPDYEWPSAKK and 10 μM ATP
The experiment can be described thus: SYK Flash Plate Assay (enzyme assay). It is filed as biochemical. The protocol: The kinase assay is performed either as 384-well Flashplate assay (for e.g. Topcount measurement) or as 384-well Image-Flashplate assay (for LEADseeker measurement).
2.5 nM SYK, 400 nM Biotin-Aha-Aha-KEDPDYEWPSAKK and 10 μM ATP (spiked with 0.3 μCi 33P-ATP/well) are incubated in a total volume of 50 μl (60 mM Hepes, 10 mM MgCl2, 1.2 mM Dithiothreitol, 0.02% Brij35, 0.1% BSA, pH 7.5) with or without test compound for 1 hours at 30° C. The reaction is stopped with 25 μl 200 mM EDTA. After 30 Min at 30° C. the liquid is removed and each well washed thrice with 100 μl 0.9% sodium chloride solution. Non-specific reaction is determined in presence of 0.1 μM Staurosporine. Radioactivity is measured with Topcount (when using Flashplates) or with LEADseeker (when using Image-Flashplates) respectively. Results (e.g. IC50-values) are calculated with program tools provided by the IT-department (e.g. Symyx Assay Explorer, Genedata Screener).

As usually defined, the IC50 is the concentration at which inhibition is half-maximal. The low end stands for greater potency, the high end for weaker potency. On to `COc1ccc(C(=O)O)cc1-c1cc2nccc(-c3c(OC)cccc3OC)c2o1` [Compound A66, 3-[7-(2,6-dimethoxy-phenyl)-furo[3,2-b]pyridin-2-yl]-4-methoxy-benzoic acid], for which the IC50 is 0.3 to 3 µM.
In the case of `COc1ccc(C(N)=O)cc1-c1cc2nccc(-c3cc([C@@H](C)N)ccc3OC)c2o1` [Compound A1, 3-{7-[5-((R)-1-Amino-ethyl)-2-methoxy-phenyl]-furo[3,2-b]pyridin-2-yl}-4-methoxy-benzamide], the IC50 lay within 0.1 to 0.3 µM.
The value for `COc1cc(-c2cc3nccc(-c4ccc5c(c4)[nH]c(=O)n5CCN)c3o2)cc(OC)c1OC` [Compound A37, 1-(2-amino-ethyl)-5-[2-(3,4,5-trimethoxy-phenyl)-furo[3,2-b]pyridin-7-yl]-1,3-dihydro-benzoimidazol-2-one] was 0.3 to 3 µM; that for `COc1ccc(-c2ncon2)cc1-c1cc2nccc(-c3c(OC)cccc3OC)c2o1` [Compound A85, 7-(2,6-dimethoxy-phenyl)-2-(2-methoxy-5-[1,2,4]oxadiazol-3-yl-phenyl)furo[3,2-b]pyridine] was less than 0.1 µM.
As for `COc1ccc(C(=O)NCC(C)(C)N)cc1-c1cc2nccc(-c3c(OC)cccc3OC)c2o1` [Compound A68, N-(2-amino-2-methyl-propyl)-3-[7-(2,6-dimethoxy-phenyl)-furo[3,2-b]pyridin-2-yl]-4-methoxy-benzamide], the figure is 0.3 to 3 µM.
The value for `COc1cc(O)ccc1-c1cc2nccc(-c3ccc4[nH]cnc4c3)c2o1` [Compound A14, 4-[7-(1H-benzoimidazol-5-yl)-furo[3,2-b]pyridin-2-yl]-3-methoxy-phenol] was 0.3 to 3 µM.
Take `COc1cccc(OC)c1-c1ccnc2cc(-c3cc(C(N)=O)ccc3C(C)C)oc12` [Compound A74, 3-[7-(2,6-dimethoxy-phenyl)-furo[3,2-b]pyridin-2-yl]-4-isopropyl-benzamide]: the IC50 lay in the range of 3 to 50 µM.
As for `COc1ccc(C(N)=O)cc1-c1cc2nccc(-c3ccnc(NC4CCCCC4N)c3)c2o1` (centres unmarked) [Compound A81, 3-{7-[2-(2-amino-cyclohexylamino)-pyridin-4-yl]-furo[3,2-b]pyridin-2-yl}-4-methoxy-benzamide], the figure is less than 0.1 µM; as for `Cc1cc2[nH]ncc2cc1-c1cc2nccc(-c3cccc(C(=O)N[C@@H]4CCCC[C@@H]4N)c3)c2o1` [Compound A45, N-((1R,2S)-2-amino-cyclohexyl)-3-[2-(6-methyl-1H-indazol-5-yl)-furo[3,2-b]pyridin-7-yl]-benzamide], 0.3 to 3 µM.
As for `COc1cc(-c2cc3nccc(-c4cccc(C(=O)NCC(N)C5CC5)c4)c3o2)cc(OC)c1OC` (centres unmarked) [Compound A23, N-(2-amino-2-cyclopropyl-ethyl)-3-[2-(3,4,5-trimethoxy-phenyl)-furo[3,2-b]pyridin-7-yl]-benzamide], the figure is 0.3 to 3 µM.
`COc1ccc(C(C)O)cc1-c1ccnc2cc(-c3cc(OC)c(OC)c(OC)c3)oc12` (centres unmarked) [Compound A21, 1-{4-methoxy-3-[2-(3,4,5-trimethoxy-phenyl)-furo[3,2-b]pyridin-7-yl]-phenyl}-ethanol] had an IC50 of 0.1 to 0.3 µM.
The value for `COc1cc(-c2cc3nccc(-c4cccc(C(=O)N[C@@H]5COC[C@@H]5N)c4)c3o2)cc(OC)c1OC` [Compound A67, N-((3S,4R)-4-amino-tetrahydro-furan-3-yl)-3-[2-(3,4,5-trimethoxy-phenyl)furo[3,2-b]pyridin-7-yl]-benzamide] was 3 to 50 µM; that for `COc1ccc(C(N)=O)cc1-c1cc2nccc(-c3ccnc(N[C@@H]4CCCC[C@@H]4N)c3)c2o1` [Compound A97, 3-{7-[2-((1R,2S)-2-amino-cyclohexylamino)-pyridin-4-yl]-furo[3,2-b]pyridin-2-yl}-4-methoxy-benzamide] was less than 0.1 µM.
The value for `COc1cc(-c2cc3nccc(-c4cccc(C(=O)N[C@@H]5CCCC[C@H]5O)c4)c3o2)cc(OC)c1OC` [Compound A19, N-((1R,2R)-2-hydroxy-cyclohexyl)-3-[2-(3,4,5-trimethoxy-phenyl)-furo[3,2-b]pyridin-7-yl]-benzamide] was 3 to 50 µM; that for `COc1ccc(OCCN)cc1-c1cc2nccc(-c3cccc(C(=O)N[C@@H]4CCCC[C@@H]4N)c3)c2o1` [Compound A51, N-((1R,2S)-2-amino-cyclohexyl)-3-{2-[5-(2-amino-ethoxy)-2-methoxy-phenyl]-furo[3,2-b]pyridin-7-yl}-benzamide] was 0.3 to 3 µM.
As for `COc1cc(-c2cc3ncc(-c4cn[nH]c4)cc3o2)cc(OC)c1OC` [Compound A59, 6-(1H-pyrazol-4-yl)-2-(3,4,5-trimethoxy-phenyl)-furo[3,2-b]pyridine], the figure is 3 to 50 µM.
As for `NC(=O)c1ccc(-c2cc3nccc(-c4cccc(C(=O)N[C@@H]5CCCC[C@@H]5N)c4)c3o2)c(F)c1` [Compound A73, 4-{7-[3-((1R,2S)-2-amino-cyclohexylcarbamoyl)-phenyl]-furo[3,2-b]pyridin-2-yl}-3-fluoro-benzamide], the IC50 was in the range of 3 to 50 µM.
As for `COc1ccc(S(N)(=O)=O)cc1-c1cc2nccc(-c3c(OC)cccc3OC)c2o1` [Compound A78, 3-[7-(2,6-dimethoxy-phenyl)-furo[3,2-b]pyridin-2-yl]-4-methoxybenzenesulfonamide], the IC50 fell in the range of 0.3 to 3 µM.
With `COC[C@@H](N)CNC(=O)c1cccc(-c2ccnc3cc(-c4cc(OC)c(OC)c(OC)c4)oc23)c1` [Compound A26, N—((S)-2-amino-3-methoxy-propyl)-3-[2-(3,4,5-trimethoxy-phenyl)-furo[3,2-b]pyridin-7-yl]-benzamide], the IC50 lay within 3 to 50 µM.
For the molecule `COc1cc(-c2cc3nccc(-c4cccc(C(=O)NC(C)(C)CO)c4)c3o2)cc(OC)c1OC` [Compound A40, N-(2-hydroxy-1,1-dimethyl-ethyl)-3-[2-(3,4,5-trimethoxy-phenyl)-furo[3,2-b]pyridin-7-yl]-benzamide], the IC50 was 0.3 to 3 µM.
As for `COc1ccc(C(=O)NCC(O)CO)cc1-c1cc2nccc(-c3c(OC)cccc3OC)c2o1` (centres unmarked) [Compound A70, N-(2,3-dihydroxy-propyl)-3-[7-(2,6-dimethoxy-phenyl)-furo[3,2-b]pyridin-2-yl]-4-methoxy-benzamide], the figure is 0.3 to 3 µM; as for `COc1cc(OCCN)ccc1-c1cc2nccc(-c3cccc(C(=O)NCCO)c3)c2o1` [Compound A29, 3-{2-[4-(2-amino-ethoxy)-2-methoxy-phenyl]-furo[3,2-b]pyridin-7-yl}-N-(2-hydroxy-ethyl)-benzamide], 3 to 50 µM; as for `COc1cc(-c2cc3nccc(-c4cccc(C(=O)N[C@@H]5CCC[C@@H]5O)c4)c3o2)cc(OC)c1OC` [Compound A22, N-((1R,2S)-2-hydroxy-cyclopentyl)-3-[2-(3,4,5-trimethoxy-phenyl)-furo[3,2-b]pyridin-7-yl]-benzamide], 3 to 50 µM.
`COc1ccc(C(N)=O)cc1-c1cc2nccc(-c3ccc(C(=O)NCCN)cc3OC)c2o1` [Compound A95, N-(2-aminoethyl)-4-[2-(5-carbamoyl-2-methoxy-phenyl)furo[3,2-b]pyridin-7-yl]-3-methoxy-benzamide] gave an IC50 of 0.1 to 0.3 µM.
The value for `COc1ccc(C(N)=O)cc1-c1cc2nccc(-c3cc(C(=O)NCCN)ccc3OC)c2o1` [Compound A79, 3-[7-[5-(2-aminoethylcarbamoyl)-2-methoxy-phenyl]furo[3,2-b]pyridin-2-yl]-4-methoxy-benzamide] was 0.3 to 3 µM.
The value for `COc1cc(-c2cc3nccc(NC(=O)NC4CCCCC4N)c3o2)cc(OC)c1OC` (centres unmarked) [Compound A75, 1-(2-amino-cyclohexyl)-3-[2-(3,4,5-trimethoxy-phenyl)-furo[3,2-b]pyridin-7-yl]-urea] was 3 to 50 µM; that for `COc1ccc(C(N)=O)cc1-c1cc2nccc(-c3c(OC)cncc3OC)c2o1` [Compound A104, 3-[7-(3,5-dimethoxy-pyridin-4-yl)-furo[3,2-b]pyridin-2-yl]-4-methoxybenzamide] was 0.1 to 0.3 µM.
As for `COc1ccc(C(N)=O)cc1-c1cc2nccc(-c3ccnc(NCCN)c3)c2o1` [Compound A80, 3-{7-[2-(2-amino-ethylamino)-pyridin-4-yl]-furo[3,2-b]pyridin-2-yl}-4-methoxybenzamide], the figure is less than 0.1 µM.
`CCc1ccc(OC)cc1-c1cc2nccc(-c3cccc(C(=O)N[C@@H]4CCCC[C@@H]4N)c3)c2o1` [Compound A42, N-((1R,2S)-2-amino-cyclohexyl)-3-[2-(2-ethyl-5-methoxy-phenyl)-furo[3,2-b]pyridin-7-yl]-benzamide] came in with an IC50 of 3 to 50 µM.
The value for `COc1cc(-c2cc3nccc(-c4ccc5[nH]c(=O)n(CCN)c5c4)c3o2)cc(OC)c1OC` [Compound A6, 1-(2-amino-ethyl)-6-[2-(3,4,5-trimethoxy-phenyl)-furo[3,2-b]pyridin-7-yl]-1,3-dihydro-benzoimidazol-2-one] was 3 to 50 µM; that for `Cc1cc(OCCN)ccc1-c1cc2nccc(-c3cccc(C(=O)N[C@@H]4CCCC[C@@H]4N)c3)c2o1` [Compound A52, N-((1R,2S)-2-amino-cyclohexyl)-3-{2-[4-(2-amino-ethoxy)-2-methyl-phenyl]-furo[3,2-b]pyridin-7-yl}-benzamide] was 0.3 to 3 µM; that for `COc1cc(-c2cc3nccc(-c4cccc(C(=O)NCC(C)(C)N)c4)c3o2)cc(OC)c1OC` [Compound A32, N-(2-amino-2-methyl-propyl)-3-[2-(3,4,5-trimethoxy-phenyl)-furo[3,2-b]pyridin-7-yl]-benzamide] was 3 to 50 µM.
